The values below come from US20110105550A1 (SALIX PHARMACEUTICALS, LTD., priority 2008, published 2011).

What all share (assay type): physicochemical
The nature of data set [1]: Milling experiments for amorphous materials. The conditions noted are these: 10 min. at 30 Hz, scraped sides, 10 min. at 30 Hz (dry milling). On the procedure:
(§1) Vapor stressing experiments were done on amorphous material from two preparations: lyophilization from p-dioxane:water 1:1 and crash precipitation from ethyl acetate with heptane. […] The majority of the stressed samples appeared as clear red solutions after 6 days. Those solutions were placed in vials of antisolvent for vapor diffusion. Dry and wet milling experiments were conducted on amorphous materials from the two preparations mentioned above. Amorphous materials were recovered from the dry milling experiments.
A solid sample of rifaximin was charged to a milling container with a milling ball. Samples were milled for 5 or 15 minute intervals (2×5 minutes, 2×15 minutes, and 3×15 minutes) at 30 Hz using a Retsch MM200 mixer mill. Solids were scraped from the sides of the vial after each interval.

Data set [2] is described as follows: Stressing under various relative humidities (RH), solid form by XRPD. From the text:
The jar was sealed and stored at either ambient temperature or in an oven at elevated temperature.

A short description of data set [3]: Automated moisture sorption/desorption (moisture balance). The following applies: for wt gain from 5 to 95% RH: sorption 5 to 95% RH; for Post-moisture sorption/desorption XRPD form: sorption from 5% RH to 95% RH, desorption from 95% RH to 5% RH. On the procedure: Moisture sorption/desorption data were collected on a VTI SGA-100 Vapor Sorption Analyzer. Sorption and desorption data were collected over a range of 5% to 95% relative humidity (RH) at 10% RH intervals under a nitrogen purge. Samples were not dried prior to analysis. Equilibrium criteria used for analysis were less than 0.0100% weight change in 5 minutes, with a maximum equilibration time of 3 hours if the weight criterion was not met. Data were not corrected for the initial moisture content of the samples. NaCl and PVP were used as calibration standards.

A short description of data set [4]: Dynamic vapor sorption/desorption (DVS) of amorphous preparations. On the procedure:
Based on the data, relative humidity stressing studies of the two amorphous materials at 40° C./75% RH are recommended.

Data set [5] can be described thus: Vapor stressing / vapor diffusion of amorphous rifaximin. The conditions noted are these: for Form obtained in vapor diffusion experiment: water as antisolvent. The procedure: as §1
[6] abbreviates: first sample of Table 3 (by elimination: lyophilization in p-dioxane:water 1:1).
[7] abbreviates: second sample of Table 3 (crash precipitation from ethyl acetate with heptane).

Structures are written as SMILES.

For the compound `CO[C@H]1/C=C/O[C@@]2(C)Oc3c(C)c(O)c4c(O)c(c5c(nc6cc(C)ccn65)c4c3C2=O)NC(=O)/C(C)=C\C=C\[C@H](C)[C@H](O)[C@@H](C)[C@@H](O)[C@@H](C)[C@H](OC(C)=O)[C@@H]1C` [crash amorphous rifaximin], in data set [1], the “XRPD Result after milling” value is “amorphous”.
For `CO[C@H]1/C=C/O[C@@]2(C)Oc3c(C)c(O)c4c(O)c(c5c(nc6cc(C)ccn65)c4c3C2=O)NC(=O)/C(C)=C\C=C\[C@H](C)[C@H](O)[C@@H](C)[C@@H](O)[C@@H](C)[C@H](OC(C)=O)[C@@H]1C` [amorphous], the “Final Form (XRPD)” value in data set [2] (43% RH, 5 days) is recorded as “amorphous”; in data set [2] (43% RH, 5 days, listed as Amorphous), “amorphous”; in data set [2] (43% RH, 5 days, listed as amorphous rifaximin) it was “remained amorphous”; in data set [2] (58% RH, 5 days) it was “amorphous”; in data set [2] (58% RH, 8 days), “remained amorphous”; in data set [2] (75% RH, 2 days, listed as amorphous rifaximin) it was “remained amorphous”. The “Final Form (XRPD)” value in data set [2] (75% RH, 5 days) is listed as “amorphous”. In addition, the “RH stability: solid form after exposure, 58% RH” value in data set [2] (58% RH, duration not printed in Table 1, am = amorphous) is recorded as “am”. Also, the “RH stability: solid form after exposure, 75% RH” value in data set [2] (75% RH, duration not printed in Table 1, am = amorphous) is reported as “am”. Moreover, in data set [3] (desorption 95 to 5% RH, listed as Rifaximin Amorphous), the “wt loss from 95 to 5% RH” value is recorded as 11.3% wt loss from 95 to 5% RH. The “wt loss upon equilibration at 5% RH” value in data set [3] (equilibration at 5% RH, listed as Rifaximin Amorphous) is listed as 0.7% wt loss upon equilibration at 5% RH. Besides, in data set [3] (moisture balance), the Hygroscopicity result is on record as “hygroscopic”. Also, the “wt gain from 5 to 95% RH” value in data set [3] (listed as Amorphous rifaximin) is 11.6%; in data set [3] (listed as Rifaximin Amorphous) it was 11.6% wt gain from 5 to 95% RH. The “Post-moisture sorption/desorption XRPD form” value in data set [3] (listed as Amorphous), in data set [3] (listed as Amorphous rifaximin) and in data set [3] (listed as Rifaximin Amorphous) was “amorphous” throughout. Also, the “DVS weight gain from 5-95% RH” value in data set [4] (setting [6]) was 8.364% eight gain from 5-95% RH; in data set [4] (setting [7]), 7.843% weight gain from 5-95% RH. Moreover, the “DVS weight loss at 5% RH” value in data set [4] (setting [6]) is reported as 0.100% weight loss at 5% RH; in data set [4] (second sample of Table 3 (DSC endo 79/204: crash precipitation from ethyl acetate with heptane)) it was 1.606% weight loss at 5% RH. For the same compound, the entries for the “DVS weight loss from 95-5% RH” value in data set [4] (setting [6]) and in data set [4] (setting [7]) were 10.989% weight loss from 95-5% RH and 9.172% weight loss from 95-5% RH, respectively. In addition, the “XRPD Result after stressing” value in data set [5] (DCM, VD w/ IPE, 11 days) is “amorphous”; in data set [5] (MEK, VD w/ IPE, 11 days) it was “amorphous”; in data set [5] (toluene, VS, RT, 6 days, listed as Rifaximin, Amorphous) it was “amorphous”; in data set [5] (toluene, VS, RT, 6 days, listed as amorphous material), “no peaks by XRPD”; in data set [5] (water, VS, RT, 15 days), “amorphous”. Also, the “Form obtained in vapor diffusion experiment” value in data set [5] (methanol) and in data set [5] (tetrahydrofuran) was “Form β” each time.
